Results published in PubChem BioAssay (NCI).
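1) Cells in 96-well plates. 2) Compound, 48 h, 5 concentrations. 3) Linear interpolation between surrounding doses. 4) Unreached endpoint = highest concentration. The concentration for full growth arrest is given as TGI.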

Legend:
Test in all cases: NCI-60 cell line screen, 48 h
[1] = tested on: DLD-1 colon
[2] = tested on: SR leukemia
[3] = tested on: UACC-62 melanoma
[4] = tested on: HCT-116 colon
[5] = tested on: IGROV1 ovarian
[6] = tested on: SK-MEL-5 melanoma
[7] = tested on: SNB-78 CNS
[8] = tested on: SNB-19 CNS
[9] = tested on: M19-MEL melanoma
[10] = tested on: NCI-H23 lung
[11] = tested on: KM20L2 colon
[12] = tested on: KM12 colon
[13] = tested on: HOP-92 NSCLC
[14] = tested on: UACC-257 melanoma
[15] = tested on: K-562 leukemia
[16] = tested on: UO-31 renal
[17] = tested on: U251 CNS
[18] = tested on: ACHN renal
[19] = tested on: HOP-62 NSCLC
[20] = tested on: SK-OV-3 ovarian
[21] = tested on: HCT-15 colon
[22] = tested on: SNB-75 CNS
[23] = tested on: RXF 393 renal
[24] = tested on: HOP-18 NSCLC
[25] = tested on: CCRF-CEM leukemia
[26] = tested on: SF-268 CNS
[27] = tested on: A549 NSCLC
[28] = tested on: DMS 273 small cell lung
[29] = tested on: OVCAR-4 ovarian
[30] = tested on: OVCAR-5 ovarian
[31] = tested on: COLO 205 colon
[32] = tested on: CAKI-1 renal
[33] = tested on: A498 renal
[34] = tested on: SF-295 CNS
[35] = tested on: SF-539 CNS
[36] = tested on: DMS 114 small cell lung
[37] = tested on: TK-10 renal
[38] = tested on: NCI-H460 lung
[39] = tested on: SW-620 colon
[40] = tested on: HCC-2998 colon
[41] = tested on: NCI-H522 lung
[42] = tested on: HL-60(TB) leukemia
[43] = tested on: MOLT-4 leukemia
[44] = tested on: MALME-3M melanoma
[45] = tested on: RPMI-8226 leukemia
[46] = tested on: LXFL 529 NSCLC
[47] = tested on: OVCAR-8 ovarian
[48] = tested on: M14 melanoma
[49] = tested on: SK-MEL-28 melanoma
[50] = tested on: SN12C renal
[51] = tested on: 786-0 renal
[52] = tested on: SK-MEL-2 melanoma
[53] = tested on: OVCAR-3 ovarian
[54] = tested on: HT29 colon
[55] = tested on: LOX IMVI melanoma
[56] = tested on: EKVX NSCLC
[57] = tested on: NCI-H226 lung
[58] = tested on: XF 498 CNS

With `O=[N+]([O-])c1cccc(S(=O)(=O)N/N=C/c2cc(I)cc([N+](=O)[O-])c2O)c1` the TGI [1] was over 100 µM, the TGI [2] was 60.9 µM and the TGI [3] was 45.2 µM. It also gave a TGI [4] of 71.1 µM, a TGI [5] of over 100 µM and a TGI [6] of 44 µM. For the same compound, the TGI [7] was 66.4 µM, the TGI [8] was 65.5 µM and the TGI [9] was over 100 µM. The TGI [10] was 42.4 µM, the TGI [11] was over 100 µM and the TGI [12] was over 100 µM. The TGI [13] was 35.1 µM, the TGI [14] was 57 µM and the TGI [15] was 58.4 µM. It also gave a TGI [16] of 67.5 µM, a TGI [17] of 57.8 µM and a TGI [18] of 95.8 µM. It also gave a TGI [19] of 57.2 µM, a TGI [20] of 73.2 µM and a TGI [21] of 65.5 µM. The TGI [22] was 67.2 µM, the TGI [23] was 56.3 µM and the TGI [24] was 78.6 µM. The TGI [25] was 47.9 µM, the TGI [26] was 79.3 µM and the TGI [27] was over 100 µM. For the same compound, the TGI [28] was 52.9 µM, the TGI [29] was over 100 µM and the TGI [30] was over 100 µM. The TGI [31] was 31.7 µM, the TGI [32] was 50.9 µM and the TGI [33] was over 100 µM. For the same compound, the TGI [34] was 98.7 µM, the TGI [35] was 48.5 µM and the TGI [36] was 53.8 µM. For the same compound, the TGI [37] was 95.2 µM, the TGI [38] was over 100 µM and the TGI [39] was 58.5 µM. It also gave a TGI [40] of over 100 µM, a TGI [41] of 35.9 µM and a TGI [42] of 47 µM. The TGI [43] was 81.5 µM, the TGI [44] was 64.2 µM and the TGI [45] was 86.2 µM. It also gave a TGI [46] of 48.3 µM, a TGI [47] of 63.2 µM and a TGI [48] of 77 µM. The TGI [49] was 87.9 µM, the TGI [50] was 64.6 µM and the TGI [51] was over 100 µM. For the same compound, the TGI [52] was 39 µM, the TGI [53] was 43.9 µM and the TGI [54] was 73.6 µM. The TGI [55] was 62.3 µM and the TGI [56] was 80 µM.
With `CC1(C2COC(=O)C2)SCCCS1` (stereo not given) the TGI [1] was over 100 µM, the TGI [2] was over 100 µM and the TGI [3] was over 100 µM. For the same compound, the TGI [4] was over 100 µM, the TGI [5] was over 100 µM and the TGI [6] was over 100 µM. It also gave a TGI [57] of over 100 µM, a TGI [8] of over 100 µM and a TGI [9] of over 100 µM. It also gave a TGI [10] of over 100 µM, a TGI [11] of over 100 µM and a TGI [12] of over 100 µM. It also gave a TGI [13] of over 100 µM, a TGI [14] of over 100 µM and a TGI [16] of 28.1 µM. The TGI [18] was over 100 µM, the TGI [19] was over 100 µM and the TGI [20] was over 100 µM. It also gave a TGI [21] of over 100 µM, a TGI [22] of over 100 µM and a TGI [23] of over 100 µM. For the same compound, the TGI [24] was over 100 µM, the TGI [25] was over 100 µM and the TGI [26] was over 100 µM. For the same compound, the TGI [27] was over 100 µM, the TGI [28] was over 100 µM and the TGI [29] was over 100 µM. It also gave a TGI [31] of over 100 µM, a TGI [32] of over 100 µM and a TGI [34] of over 100 µM. The TGI [35] was over 100 µM, the TGI [58] was over 100 µM and the TGI [36] was over 100 µM. It also gave a TGI [37] of over 100 µM, a TGI [38] of over 100 µM and a TGI [39] of over 100 µM. The TGI [40] was over 100 µM, the TGI [41] was 10.9 µM and the TGI [42] was over 100 µM. The TGI [43] was over 100 µM, the TGI [44] was over 100 µM and the TGI [46] was over 100 µM. It also gave a TGI [47] of over 100 µM, a TGI [48] of over 100 µM and a TGI [49] of over 100 µM. The TGI [50] was over 100 µM, the TGI [51] was over 100 µM and the TGI [52] was over 100 µM. For the same compound, the TGI [53] was over 100 µM, the TGI [54] was over 100 µM and the TGI [55] was over 100 µM. For the same compound, the TGI [56] was over 100 µM.
In the case of `O=C1NC2(CCCCC2)C2CCCCC=C12` (stereo not given), the TGI [1] is reported as over 100 µM, the TGI [2] is reported as over 100 µM and the TGI [3] is reported as over 100 µM. It also gave a TGI [4] of over 100 µM, a TGI [5] of over 100 µM and a TGI [6] of over 100 µM. It also gave a TGI [7] of over 100 µM, a TGI [8] of over 100 µM and a TGI [9] of over 100 µM. For the same compound, the TGI [10] was over 100 µM, the TGI [12] was over 100 µM and the TGI [13] was over 100 µM. The TGI [14] was over 100 µM, the TGI [15] was over 100 µM and the TGI [16] was over 100 µM. The TGI [17] was over 100 µM, the TGI [18] was over 100 µM and the TGI [19] was over 100 µM. The TGI [20] was over 100 µM, the TGI [21] was over 100 µM and the TGI [22] was over 100 µM. It also gave a TGI [23] of over 100 µM, a TGI [24] of over 100 µM and a TGI [25] of over 100 µM. It also gave a TGI [26] of over 100 µM, a TGI [27] of over 100 µM and a TGI [28] of over 100 µM. It also gave a TGI [29] of over 100 µM, a TGI [30] of over 100 µM and a TGI [31] of over 100 µM. The TGI [32] was over 100 µM, the TGI [33] was over 100 µM and the TGI [34] was over 100 µM. It also gave a TGI [35] of over 100 µM, a TGI [58] of over 100 µM and a TGI [36] of over 100 µM. For the same compound, the TGI [37] was over 100 µM, the TGI [38] was over 100 µM and the TGI [39] was over 100 µM. The TGI [41] was over 100 µM, the TGI [42] was over 100 µM and the TGI [43] was over 100 µM. It also gave a TGI [44] of over 100 µM, a TGI [45] of over 100 µM and a TGI [46] of over 100 µM. For the same compound, the TGI [47] was over 100 µM, the TGI [48] was over 100 µM and the TGI [49] was over 100 µM. It also gave a TGI [50] of over 100 µM, a TGI [51] of over 100 µM and a TGI [52] of over 100 µM. For the same compound, the TGI [53] was over 100 µM, the TGI [54] was over 100 µM and the TGI [55] was over 100 µM. For the same compound, the TGI [56] was over 100 µM.
Compound `CN(C)N=Nc1cccc(C(N)=O)c1` has a TGI [1] of over 100 µM, a TGI [2] of over 100 µM and a TGI [4] of over 100 µM. For the same compound, the TGI [5] was over 100 µM, the TGI [6] was over 100 µM and the TGI [57] was over 100 µM. For the same compound, the TGI [7] was over 100 µM, the TGI [8] was over 100 µM and the TGI [9] was over 100 µM. For the same compound, the TGI [10] was over 100 µM, the TGI [11] was over 100 µM and the TGI [12] was over 100 µM. The TGI [13] was over 100 µM, the TGI [15] was over 100 µM and the TGI [16] was over 100 µM. For the same compound, the TGI [17] was over 100 µM, the TGI [18] was over 100 µM and the TGI [20] was over 100 µM. For the same compound, the TGI [21] was over 100 µM, the TGI [22] was over 100 µM and the TGI [23] was over 100 µM. The TGI [24] was over 100 µM, the TGI [25] was over 100 µM and the TGI [26] was over 100 µM. For the same compound, the TGI [27] was over 100 µM, the TGI [28] was over 100 µM and the TGI [29] was over 100 µM. It also gave a TGI [31] of over 100 µM, a TGI [32] of over 100 µM and a TGI [33] of over 100 µM. It also gave a TGI [34] of over 100 µM, a TGI [35] of over 100 µM and a TGI [58] of over 100 µM. For the same compound, the TGI [36] was over 100 µM, the TGI [37] was over 100 µM and the TGI [38] was over 100 µM. The TGI [39] was over 100 µM, the TGI [40] was over 100 µM and the TGI [42] was over 100 µM. For the same compound, the TGI [43] was over 100 µM, the TGI [44] was over 100 µM and the TGI [45] was over 100 µM. For the same compound, the TGI [46] was over 100 µM, the TGI [47] was over 100 µM and the TGI [48] was over 100 µM. The TGI [49] was over 100 µM, the TGI [50] was over 100 µM and the TGI [51] was over 100 µM. For the same compound, the TGI [52] was over 100 µM, the TGI [53] was over 100 µM and the TGI [54] was over 100 µM. It also gave a TGI [56] of over 100 µM.
